Results as given in patent US20090270456A1, “Novel chemical compounds” (priority 2004, published 2009).

Legend:
[1] = biological target: T1, casein kinase 2 alpha (CK2α) (Homo sapiens, UniProt P68400); assay: CK2α kinase assay using peptide phosphoacceptor (substrate phosphorylation, SPA); assay type: biochemical; conditions: purified CK2α (co-expressed with CK2β), 0.001 mM peptide, 0.001 mM ATP, 3 hours room temperature; read-out: pIC50 values (converted)
T1 construct: made in house; host or cells: baculovirus-based vectors in Sf21 insect cells
Description: Compounds of the present invention were also tested for casein kinase 2 alpha (CK2α) inhibitory activity in substrate phosphorylation assays. This assay examines the ability of small molecule organic compounds to inhibit the serine phosphorylation of a peptide substrate.
Kinase Assays Using Peptide Phosphoacceptor
The biotinylated peptide (Biotin—GGRRRDDDS*DDD-OH), was purchased from Biosource International, Inc. (Camarillo, Calif.), and its purity was determined by HPLC. Phosphorylation of serine (S*) occurs under assay conditions described. The calculated molecular mass of the peptide was 1713 dalton. Solid sample was dissolved at 10 mM in DMSO, aliquoted, and stored at −20° C. until use.
Recombinant expression of casein kinase 2 alpha (CK2α), using baculovirus-based vectors in Sf21 insect cells and purified by P11 phosphocellulose (Whatman) chromatography of the clarified cell lysate, produced constitutively active enzyme. CK2α was co-expressed with CK2β. Samples were stored at −20° C. in the presence of 50% glycerol until use.
Kinase Assay of Purified CK2α:
Assays were performed in 384 well plates (Costar, Catalog No. 3705). Compounds first were delivered to the plate in one microliter DMSO, followed by reaction mix (in 40 ul volume), which contained in final concentrations 25 mM Hepes buffer, pH 7.4; […]; 150 mM NaCl; 1 mM β-mercapto ethanol; 0.0025% Tween-20; 0.001 mM ATP, 0.1 μCi of [γ-33P]ATP; purified CK2α (6 ng/assay), and 0.001 mM peptide. […]
The data for dose responses were plotted as % Inhibition, calculated with the data reduction formula 100*(1−[(U1−C2)/(C1−C2)]), versus concentration of compound, where U is the unknown value, C1 is the average control value obtained for DMSO, and C2 is the average control value obtained for 0.05M EDTA Data were fitted to the curve described by: y=((Vmax*x)/(K+x)) where Vmax is the upper asymptote and K is the IC50. The results for each compound were recorded as pIC50 calculated as follows: pIC50=−Log 10(K) in Table 2.

[2] = biological target: T2, hYAK3 (Homo sapiens, UniProt O43781); assay: YAK3 scintillation proximity assay using Ser164 of myelin basic protein as the phosphoacceptor; assay type: biochemical; conditions: purified GST-hYak3-His6, 4 μM Ser164 peptide, 0.001 mM ATP, 2 hours room temperature; read-out: pIC50 values (converted)
T2 construct: GST (N); His6 (C); made in house; host or cells: baculovirus expression system in Sf9 cells
T2 sequence (O43781 124-526): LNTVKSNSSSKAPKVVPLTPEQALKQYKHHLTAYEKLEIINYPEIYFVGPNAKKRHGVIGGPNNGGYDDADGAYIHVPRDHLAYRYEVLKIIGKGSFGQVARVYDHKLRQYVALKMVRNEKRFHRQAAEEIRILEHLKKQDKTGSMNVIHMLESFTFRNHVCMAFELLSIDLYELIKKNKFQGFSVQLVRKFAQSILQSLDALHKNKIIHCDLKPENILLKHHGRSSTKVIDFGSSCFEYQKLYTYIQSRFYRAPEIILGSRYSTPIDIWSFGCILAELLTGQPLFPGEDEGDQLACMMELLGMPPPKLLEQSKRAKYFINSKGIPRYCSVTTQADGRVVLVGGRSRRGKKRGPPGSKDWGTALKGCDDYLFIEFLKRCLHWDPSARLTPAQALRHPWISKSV
Description: YAK3 Scintillation Proximity Assays Using Ser164 of Myelin Basic Protein as the Phosphoacceptor
The source of Ser164 substrate peptide The biotinylated Ser164, S164A peptide(Biotinyl—LGGRDSRAGS*PMARR—OH), sequence derived from the C-terminus of bovine myelin basic protein (MBP) with Ser162 substituted as Ala162, was purchased from California Peptide Research Inc. (Napa, Calif.), and its purity was determined by HPLC. Phosphorylation occurs at position 164 (marked S* above). The calculated molecular mass of the peptide was 2166 dalton. Solid sample was dissolved at 10 mM in DMSO, aliquoted, and stored at −20° C. until use.
The source of hYAK3 enzyme: Glutathione-S-Transferase (GST)-hYak3-His6 containing amino acid residues 124-526 of human YAK3 (aa 124-526 of SEQ ID NO 2. in U.S. Pat. No. 6,323,318) was purified from baculovirus expression system in Sf9 cells using Glutathione Sepharose 4B column chromatography followed by Ni-NTA-Agarose column chromatography. Purity greater than 65% typically was achieved. Samples, in 50 mM Tris, 150 mM NaCl, 10% glycerol, 0.1% Triton, 250 mM imidazole, 10 mM β-mercapto ethanol, pH 8.0. were stored at −80° C. until use.
Kinase assay of purified hYAK3: Assays were performed in 96 well (Costar, Catalog No. 3789) or 384 well plates (Costar, Catalog No. 3705). […] Compounds, titrated in DMSO, were evaluated at concentrations ranging from 50 μM to 0.5 nM. […]

T1 sequence (P68400 whole entry): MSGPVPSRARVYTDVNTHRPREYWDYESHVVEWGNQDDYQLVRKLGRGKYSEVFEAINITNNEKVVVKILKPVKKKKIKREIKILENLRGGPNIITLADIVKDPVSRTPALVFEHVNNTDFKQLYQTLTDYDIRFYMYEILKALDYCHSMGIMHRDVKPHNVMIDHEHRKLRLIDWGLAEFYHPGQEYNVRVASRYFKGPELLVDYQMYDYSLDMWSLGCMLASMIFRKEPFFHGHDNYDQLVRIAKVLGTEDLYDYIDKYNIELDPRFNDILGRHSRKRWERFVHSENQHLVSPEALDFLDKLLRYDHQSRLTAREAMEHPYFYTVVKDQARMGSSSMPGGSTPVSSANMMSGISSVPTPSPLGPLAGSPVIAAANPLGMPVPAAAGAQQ
T1 sequence (P67870 whole entry partner): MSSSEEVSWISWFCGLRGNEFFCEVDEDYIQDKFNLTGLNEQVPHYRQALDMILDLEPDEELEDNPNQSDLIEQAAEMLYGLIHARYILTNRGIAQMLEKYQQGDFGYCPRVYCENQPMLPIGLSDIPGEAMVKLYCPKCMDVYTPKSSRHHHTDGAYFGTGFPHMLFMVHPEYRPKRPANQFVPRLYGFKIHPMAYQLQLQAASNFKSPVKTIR

Row | Compound | IC50 [1] [nM] | IC50 [2] [nM]
1 | COc1ccc(-c2nc(Nc3cc(S(=O)(=O)O)ccc3Cl)c(C(=O)O)s2)cc1 [Ieg, 4-(2-Chloro-5-sulfophenylamino)-2-(4-methoxyphenyl) thiazole-5-carboxylic acid] | 102 to 1000 | 
2 | NC(=O)c1sc(-c2ccc3c(c2)CCO3)nc1Nc1ccccc1Cl [Ieb, 4-(2-Chlorophenylamino)-2-(2,3-dihydrobenzofuran-5-yl) thiazole-5-carboxylic acid amide] | 1020 to 10000 | 
3 | COc1cccc(-c2nc(Nc3ccccc3F)c(C(=O)O)s2)c1 [Ibf, 5-Carboxyl-4-(2-fluoroanilino)-2-(3-methoxyphenyl)thiazole] |  | 1020 to 10000
4 | COc1ccc(-c2nc(Nc3cc(C(N)=O)ccc3Cl)c(C(=O)O)s2)cc1 [Ief, 4-(5-Carbamoyl-2-chlorophenylamino)-2-(4-methoxyphenyl)thiazole-5-carboxylic acid] | 10.2 to 100 | 
5 | COc1ccc(-c2nc(Nc3ccccc3C(F)(F)F)c(C(=O)O)s2)cc1 [Ibd, 5-Carboxyl-2-(4-methoxyphenyl)-4-(2-trifluoromethylanilino)thiazole] |  | 102 to 1000
